From PubChem BioAssay AID1919016 (Molecular Pharmacology Branch, DTP, NCI, 2023)
Blank lines part the entries; values can stand above or below the molecule they belong to.

Test system: NCI-H196 complex spheroid growth, percent test/control
Test: Anticancer human tumor NCI-H196 cell line growth inhibition [AhR];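 further: seven days of drug exposure starting three days after plating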;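 on viability, T/C: 100% = DMSO vehicle control wells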
Conditions: for IC50: curve of first compound; for viability, T/C: stronger effect = lower value
In short: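 Spheroids combined tumor cells with HUVEC endothelial cells and human MSCs as stroma. AhR antagonists were paired with standard or investigational drugs, each dosed in half-log steps down from near clinical Cmax, or from 10 microM where Cmax was unknown.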

[1] = second compound 0.1 µM, first compound 0.0316 µM
[2] = second compound 0.1 µM, first compound 0.1 µM
[3] = second compound 0.316 µM, first compound 0.0316 µM
[4] = second compound 0.316 µM, first compound 0.1 µM
[5] = second compound 1 µM, first compound 0.0316 µM
[6] = second compound 1 µM, first compound 0.1 µM
[7] = second compound 3.16 µM, first compound 0.0316 µM
[8] = second compound 3.16 µM, first compound 0.1 µM
[9] = second compound 10 µM, first compound 0.0316 µM
[10] = second compound 10 µM, first compound 0.1 µM

IC50 (second compound 0.1 µM): > 0.1 µM
IC50 (second compound 0.316 µM): > 0.1 µM
IC50 (second compound 1 µM): > 0.1 µM
IC50 (second compound 3.16 µM): > 0.1 µM
IC50 (second compound 10 µM): > 0.1 µM
SMILES: Cn1ncnc1C1c2n[nH]c(=O)c3cc(F)cc(c23)NC1c1ccc(F)cc1 (stereo not given) + Cc1cncc(-c2nc(NCCc3c[nH]c4ccccc34)c3ncn(C(C)C)c3n2)c1
viability, T/C (second compound 0.1 µM, first compound 0.000316 µM): 110%
viability, T/C (second compound 0.1 µM, first compound 0.001 µM): 101%
viability, T/C (second compound 0.1 µM, first compound 0.00316 µM): 114%
viability, T/C (second compound 0.1 µM, first compound 0.01 µM): 104%
viability, T/C [1]: 99.3%
viability, T/C [2]: 96%
viability, T/C (second compound 0.316 µM, first compound 0.000316 µM): 112%
viability, T/C (second compound 0.316 µM, first compound 0.001 µM): 98.6%
viability, T/C (second compound 0.316 µM, first compound 0.00316 µM): 110%
viability, T/C (second compound 0.316 µM, first compound 0.01 µM): 107%
viability, T/C [3]: 110%
viability, T/C [4]: 97.8%
viability, T/C (second compound 1 µM, first compound 0.000316 µM): 103%
viability, T/C (second compound 1 µM, first compound 0.001 µM): 102%
viability, T/C (second compound 1 µM, first compound 0.00316 µM): 109%
viability, T/C (second compound 1 µM, first compound 0.01 µM): 111%
viability, T/C [5]: 109%
viability, T/C [6]: 104%
viability, T/C (second compound 3.16 µM, first compound 0.000316 µM): 111%
viability, T/C (second compound 3.16 µM, first compound 0.001 µM): 113%
viability, T/C (second compound 3.16 µM, first compound 0.00316 µM): 126%
viability, T/C (second compound 3.16 µM, first compound 0.01 µM): 96.1%
viability, T/C [7]: 108%
viability, T/C [8]: 103%
viability, T/C (second compound 10 µM, first compound 0.000316 µM): 94.5%
viability, T/C (second compound 10 µM, first compound 0.001 µM): 97.8%
viability, T/C (second compound 10 µM, first compound 0.00316 µM): 91.7%
viability, T/C (second compound 10 µM, first compound 0.01 µM): 112%
viability, T/C [9]: 96.6%
viability, T/C [10]: 104%

IC50 (second compound 0.1 µM): > 10 µM
IC50 (second compound 0.316 µM): > 10 µM
IC50 (second compound 1 µM): > 10 µM
IC50 (second compound 3.16 µM): > 10 µM
IC50 (second compound 10 µM): > 10 µM
SMILES: NS(=O)(=O)OCC1CC(n2ccc3c(NC4CCc5ccccc54)ncnc32)CC1O (stereo not given) + Cc1cncc(-c2nc(NCCc3c[nH]c4ccccc34)c3ncn(C(C)C)c3n2)c1
viability, T/C [1]: 73.7%
viability, T/C [2]: 65.6%
viability, T/C (second compound 0.1 µM, first compound 0.316 µM): 57.3%
viability, T/C (second compound 0.1 µM, first compound 1 µM): 48.6%
viability, T/C (second compound 0.1 µM, first compound 3.16 µM): 77%
viability, T/C (second compound 0.1 µM, first compound 10 µM): 68.2%
viability, T/C [3]: 80%
viability, T/C [4]: 63.3%
viability, T/C (second compound 0.316 µM, first compound 0.316 µM): 56.3%
viability, T/C (second compound 0.316 µM, first compound 1 µM): 55.6%
viability, T/C (second compound 0.316 µM, first compound 3.16 µM): 58.1%
viability, T/C (second compound 0.316 µM, first compound 10 µM): 64.9%
viability, T/C [5]: 74.3%
viability, T/C [6]: 66.7%
viability, T/C (second compound 1 µM, first compound 0.316 µM): 60.6%
viability, T/C (second compound 1 µM, first compound 1 µM): 49.3%
viability, T/C (second compound 1 µM, first compound 3.16 µM): 72%
viability, T/C (second compound 1 µM, first compound 10 µM): 59.3%
viability, T/C [7]: 81.8%
viability, T/C [8]: 81.8%
viability, T/C (second compound 3.16 µM, first compound 0.316 µM): 66.8%
viability, T/C (second compound 3.16 µM, first compound 1 µM): 53.8%
viability, T/C (second compound 3.16 µM, first compound 3.16 µM): 60.7%
viability, T/C (second compound 3.16 µM, first compound 10 µM): 66.2%
viability, T/C [9]: 102%
viability, T/C [10]: 91.7%
viability, T/C (second compound 10 µM, first compound 0.316 µM): 96.4%
viability, T/C (second compound 10 µM, first compound 1 µM): 79.6%
viability, T/C (second compound 10 µM, first compound 3.16 µM): 74.8%
viability, T/C (second compound 10 µM, first compound 10 µM): 61.6%
